Values joined by “and” are separate entries in the source; they are usually repeats but may differ in a detail not shown here. Identical values can stand only once.
system: 3T3-L1 adipocytes; test: glucose consumption (remaining glucose) in culture medium of 3T3-L1 adipocytes; format: cell-based; details: 30 μg/ml; culture medium of 3T3-L1 adipocytes after 24 hours; means ± SD, N = 3; control 310 ± 4.0
Protocol: After precursor adipocytes 3T3-L1 were induced as the matured adipocytes, culture medium with glucose (concentration of 300 mg/dl) and drugs were added, and the concentration of the remaining glucose in the culture medium were measured after 24 hours.
Adipose tissues are major sites for postprandial glucose uptake. Therefore, in vitro anti-diabetic screening model based on measuring glucose consumption after 24 hours in culture medium of 3T3-L1 adipocytes was developed. […] Accordingly, 60 chalcone derivatives with and without substitutions on A-ring were examined in our developed model. […] Structure-activity relationship (SAR) analyses data are also determined.

| Structure (SMILES) | remaining glucose concentration in culture medium after 24 hours |
| --- | --- |
| O=C(/C=C/c1ccc(O)cc1)c1ccccc1 [Compound 29, (E)-3-(4-hydroxyphenyl)-1-phenylprop-2-en-1-one] | 263 ± 5.6 mg/dL |
| COc1cccc(/C=C/C(=O)c2ccccc2)c1 [Compound 8, (E)-3-(3-methoxyphenyl)-1-phenylprop-2-en-1-one] | 261 ± 7.2 mg/dL |
| COc1ccc(/C=C/C(=O)c2ccccc2)cc1 [Compound 7, (E)-3-(4-methoxyphenyl)-1-phenylprop-2-en-1-one] | 261 ± 3.2 mg/dL |
| O=C(/C=C/c1ccc(OCc2ccccc2)cc1)c1ccccc1O [Compound 25, (E)-3-(4-(benzyloxy)phenyl)-1-(2-hydroxyphenyl)prop-2-en-1-one] | 260 ± 3.8 mg/dL |
| COc1cccc(/C=C/C(=O)c2cc(Br)ccc2O)c1 [Compound 21, (E)-1-(5-bromo-2-hydroxyphenyl)-3-(3-methoxyphenyl)prop-2-en-1-one] | 260 ± 3.3 mg/dL |
| COc1ccc(/C=C/C(=O)c2ccc(Cl)cc2)cc1 [Compound 47, (E)-1-(4-chlorophenyl)-3-(4-methoxyphenyl)prop-2-en-1-one] | 293 ± 7.8 mg/dL |
| O=C(/C=C/c1cccc(OCc2ccccc2)c1)c1ccccc1I [Compound 54, (E)-3-(3-(benzyloxy)phenyl)-1-(2-iodophenyl)prop-2-en-1-one] | 238 mg/dL and 238 ± 1.1 mg/dL |
| COc1ccc(/C=C/C(=O)c2cccc(I)c2)cc1 [Compound 56, (E)-1-(3-iodophenyl)-3-(4-methoxyphenyl)prop-2-en-1-one] | 233 mg/dL and 233 ± 3.5 mg/dL |
| COc1cccc(/C=C/C(=O)c2cc(Cl)ccc2O)c1 [Compound 38, (E)-1-(5-chloro-2-hydroxyphenyl)-3-(3-methoxyphenyl)prop-2-en-1-one] | 266 ± 23.3 mg/dL |
| COc1cccc(/C=C/C(=O)c2ccc(Br)cc2)c1 [Compound 16, (E)-1-(4-bromophenyl)-3-(3-methoxyphenyl)prop-2-en-1-one] | 257 ± 10.0 mg/dL |
| COc1cccc(/C=C/C(=O)c2cccc(Br)c2)c1 [Compound 14, (E)-1-(3-bromophenyl)-3-(3-methoxyphenyl)prop-2-en-1-one] | 262 ± 2.2 mg/dL |
| O=C(/C=C/c1ccccc1)c1cccc(I)c1 [Compound 55, (E)-1-(3-iodophenyl)-3-phenylprop-2-en-1-one] | 294 ± 7.3 mg/dL |
| COc1ccc(/C=C/C(=O)c2ccc(I)cc2)cc1 [Compound 59, (E)-1-(4-iodophenyl)-3-(4-methoxyphenyl)prop-2-en-1-one] | 299 ± 3.8 mg/dL |
| O=C(/C=C/c1ccc(OCc2ccccc2)cc1)c1cc(Br)ccc1O [Compound 23, (E)-3-(4-(benzyloxy)phenyl)-1-(5-bromo-2-hydroxyphenyl)prop-2-en-1-one] | 256 ± 1.3 mg/dL |
| COc1ccc(/C=C/C(=O)c2cccc(F)c2)cc1 [Compound 40, (E)-1-(3-fluorophenyl)-3-(4-methoxyphenyl)prop-2-en-1-one] | 298 ± 15.5 mg/dL |
| COc1ccc(/C=C/C(=O)c2cc(Br)ccc2O)cc1 [Compound 20, (E)-1-(5-bromo-2-hydroxyphenyl)-3-(4-methoxyphenyl)prop-2-en-1-one] | 254 ± 17.6 mg/dL |

| Structure (SMILES) | remaining glucose concentration in culture medium after 24 hours |
| --- | --- |
| COc1cccc(/C=C/C(=O)c2ccccc2F)c1 [Compound 39, (E)-1-(2-fluorophenyl)-3-(3-methoxyphenyl)prop-2-en-1-one] | 285 ± 4.4 mg/dL |
| COc1cccc(/C=C/C(=O)c2ccccc2Br)c1 [Compound 13, (E)-1-(2-bromophenyl)-3-(3-methoxyphenyl)prop-2-en-1-one] | 249 ± 5.2 mg/dL |
| COc1ccc(/C=C/C(=O)c2cccc(Br)c2)cc1 [Compound 17, (E)-1-(3-bromophenyl)-3-(4-methoxyphenyl)prop-2-en-1-one] | 248 ± 8.0 mg/dL |
| O=C(/C=C/c1ccc2c(c1)OCO2)c1ccccc1O [Compound 33, (E)-3-(benzo[d][1,3]dioxol-5-yl)-1-(2-hydroxyphenyl)prop-2-en-1-one] | 279 ± 7.6 mg/dL |
| O=C(/C=C/c1ccccc1)c1ccc(Br)cc1 [Compound 50, (E)-1-(4-bromophenyl)-3-phenylprop-2-en-1-one] | 295 ± 5.8 mg/dL |
| COc1ccc(/C=C/C(=O)c2ccc(Br)cc2)cc1 [Compound 18, (E)-1-(4-bromophenyl)-3-(4-methoxyphenyl)prop-2-en-1-one] | 261 ± 12.7 mg/dL |
| CN(CCOc1ccc(CC2SC(=O)NC2=O)cc1)c1ccccn1 (stereo not shown) [Rosiglitazone, rosiglitazone, reference compound] | 263 ± 23.9 mg/dL |
| COc1cccc(/C=C/C(=O)c2cccc(F)c2)c1 [Compound 41, (E)-1-(3-fluorophenyl)-3-(3-methoxyphenyl)prop-2-en-1-one] | 282 ± 10.1 mg/dL |
| COc1cccc(/C=C/C(=O)c2cc(F)ccc2O)c1 [Compound 35, (E)-1-(5-fluoro-2-hydroxyphenyl)-3-(3-methoxyphenyl)prop-2-en-1-one] | 297 ± 9.3 mg/dL |
| COc1ccc(/C=C/C(=O)c2ccccc2F)cc1 [Compound 28, (E)-1-(2-fluorophenyl)-3-(4-methoxyphenyl)prop-2-en-1-one] | 259 ± 0.3 mg/dL |
| O=C(/C=C/c1cccc(OCc2ccccc2)c1)c1ccc(O)cc1O [Compound 34, (E)-3-(3-(benzyloxy)phenyl)-1-(2,4-dihydroxyphenyl)prop-2-en-1-one] | 283 ± 2.6 mg/dL |
| O=C(/C=C/c1ccc2c(c1)OCO2)c1ccccc1 [Compound 32, (E)-3-(benzo[d][1,3]dioxol-5-yl)-1-phenylprop-2-en-1-one] | 252 ± 18.1 mg/dL |
| O=C(/C=C/c1ccc(O)cc1)c1ccccc1O [Compound 24, (2E)-1-(2-hydroxyphenyl)-3-(4-hydroxyphenyl)-2-propen-1-one] | 267 ± 3.4 mg/dL |
| COc1ccc(/C=C/C(=O)c2cccc(Cl)c2)cc1 [Compound 45, (E)-1-(3-chlorophenyl)-3-(4-methoxyphenyl)prop-2-en-1-one] | 255 ± 27.1 mg/dL |
| O=C(/C=C/c1cccc(OCc2ccccc2)c1)c1ccccc1O [Compound 11, (E)-3-(3-(benzyloxy)phenyl)-1-(2-hydroxyphenyl)prop-2-en-1-one] | 256 ± 13.1 mg/dL |
| O=C(/C=C/c1cccc(OCc2ccccc2)c1)c1cc(Br)ccc1O [Compound 22, (E)-3-(3-(benzyloxy)phenyl)-1-(5-bromo-2-hydroxyphenyl)prop-2-en-1-one] | 252 ± 0.1 mg/dL |

same assay, conditions: 30 μg/ml; culture medium of 3T3-L1 adipocytes after 24 hours; means ± SD, N = 3; control 310 ± 4.0; listed as rosiglitazone

| Structure (SMILES) | remaining glucose concentration in culture medium after 24 hours |
| --- | --- |
| CN(CCOc1ccc(CC2SC(=O)NC2=O)cc1)c1ccccn1 (stereo not shown) [Rosiglitazone, rosiglitazone, reference compound] | 263 mg/dL |

same assay, conditions: FIG. 1; 30 μg/ml, medium glucose 300 mg/dl, remaining glucose after 24 hours

| Structure (SMILES) | glucose absorption activity of adipocytes 3T3-L1 (anti-hyperglycemic ability) |
| --- | --- |
| COc1cccc(/C=C/C(=O)c2ccc(Br)cc2)c1 [Compound 16, (E)-1-(4-bromophenyl)-3-(3-methoxyphenyl)prop-2-en-1-one] | not significantly different |

Reference: patent US9085520B2, “Composition for treating diabetes and metabolic diseases and a preparation method thereof” (KAOHSIUNG MEDICAL UNIVERSITY, priority 2011, dated 2015)
